What was measured:
[1] = test system: C2C12 myoblast cell line; test: Myotube formation of C2C12 cells observed under phase contrast microscopy; assay type: cell-based, mouse; conditions: 0.2 μM, 3 days differentiation, compared to DMSO control; FIG. 1
Experimental: C2C12 is a cell line of myoblasts obtained from a C3H strain live mouse, and it is widely used in the differentiation studies of myoblasts.
The above-described C2C12 cells were cultured in each of general media for cell growth and media for differentiation. In the normal cell growth media (GM), DMEM supplemented with 10% fetal bovine serum was used, and in the differentiation media (DM), DMEM containing 2% horse blood serum was used.
(§1) The DMSO, cetylpyridinium chloride, butylpyridinium chloride, and dodecylpyridinium chloride used in the experiment were all purchased from Sigma-Aldrich.

[2] = test system: C2C12 myoblast cell line; test: Immunocytochemistry of MYH3 expression in differentiating C2C12 cells; assay type: cell-based, mouse; conditions: 0.2 μM, third day of differentiation; FIG. 2
Experimental: as §1
C2C12 cells on a cover glass coated with 0.1% gelatin were differentiated for 3 days. After washing the cells with 1×PBS, fixing with 3.7% paraformaldehyde at room temperature for 15 minutes, and washing 3 times with 1×PBS, a permeabilization buffer was added, and the cells were reacted at room temperature for 15 minutes. After washing the cells three times with 1×PBS again, the cells were reacted for 30 minutes with PBST (blocking buffer, PBS containing 0.5% Tween 20) containing 1% BSA to deter any unspecific binding of antibodies. The primary antibody against MYH3 (SC-20641, Santa Cruz Biotechnology) was added to the blocking buffer by diluting at a ratio of 1:500 and was reacted at room temperature for 1 hour. After washing the cells three times with 1×PBS, the secondary antibody (Goat anti-Rabbit IgG-HRP), which was diluted in the blocking buffer at a ratio of 1:5000, was added and reacted at room temperature for 1 hour, and the cells were washed three times with 1×PBS. The cover glass was placed on a slide glass, photographs were taken with a fluorescence microscope, and the results were analyzed.

[3] = test system: C2C12 myoblast cell line; test: Western blot of MYH3 protein in differentiating C2C12 cells; assay type: cell-based, mouse; conditions: 0.2 μM every day, third day of differentiation, vs DMSO control; FIG. 3
Experimental: The cells were harvested on the third day of differentiation and centrifuged at 1200 rpm for 3 minutes. After adding 100 μL of a lysis buffer to the cells, the cells were sonicated and centrifuged at 3000 rpm for 10 minutes to obtain a water-soluble protein, and after adding a 4× sample buffer, the cells were reacted in boiling water for 5 minutes.
10 μg of the protein was loaded on a 12% SDS-PAGE gel and developed, and then was transferred onto a nitrocellulose membrane. The nitrocellulose membrane was blocked in 5% skim milk for 1 hour at room temperature and washed 5 times with TTBS (0.03% Tween 20, Tris 2.42 g, NaCl 9 g, pH 7.4, and 1 L) for 5 minutes each. The primary antibody was diluted in TTBS containing 5% skim milk at a ratio of 1:500 and was added to the nitrocellulose membrane, and after reacting at room temperature for 2 hours, the nitrocellulose membrane was again washed 5 times with TTBS for 5 minutes each. The secondary antibody was diluted at a ratio of 1:5000 again in TTBS containing 5% skim milk and added, was reacted at room temperature for 2 hours, was washed with TTBS 5 times for 5 minutes each, and ECL (Enhanced Chemiluminescent solution, Pierce) was added. Thereafter, the membrane was exposed to X-ray film, and the amount of the protein was measured.

[4] = test system: C57BL/6 male mice, muscle immobilization model; test: Grip strength test after tibialis anterior muscle immobilization; assay type: in vivo, mouse; conditions: compared to control group
Experimental: (§2) As experimental animals, 20 of C57BL/6 male mice aged 6 weeks were used. The experimental animals were assigned to two groups: a control group, to which 10 mice having similar weights were assigned without administration, and an experimental group, to which 10 mice having similar weights were assigned with butylpyridinium chloride administration.
(§3) It was also administered continuously during the muscle immobilization periods described below.
(§4) In this experiment, as a method for inducing muscle regeneration in mice, the tibialis anterior muscle immobilization protocol was used. In this method, the thighs and shins of one leg of a mouse were fixed using a medical staple so that legs were immobilized, and after leaving the immobilized mouse alone for 3 days, the fixed leg was released. The principle used in this method is that when a leg is placed in a cast and the muscle of the leg is immobilized (i.e., not frequently used), the muscle is lost. […]
Grip strength was measured using a grip strength measuring instrument made by the company BIOSEB. The mouse was placed on a wire mesh attached to the instrument panel that can monitor the strength of a force, and the force of holding the wire mesh by the mouse while the tail was gripped downward was measured. […]

[5] = test system: C57BL/6 male mice, muscle immobilization model; test: Rota-rod test after tibialis anterior muscle immobilization; assay type: in vivo, mouse; conditions: compared to control group
Experimental: as §2, §3
as §4, with “lost. It is a method for inducing muscle regeneration, in which, after the muscle loss due to immobilizing the shin muscle, the muscle is regenerated by releasing the immobilized muscle so that the muscle may move again.” for “lost.”

[6] = test system: C57BL/6 male mice, muscle immobilization model; test: Treadmill test after tibialis anterior muscle immobilization; assay type: in vivo, mouse; conditions: compared to control group
Experimental: as §2, §3
as §4, with “lost. It is a method for inducing muscle regeneration, in which, after the muscle loss due to immobilizing the shin muscle, the muscle is regenerated by releasing the immobilized muscle so that the muscle may move again.” for “lost.”

[7] = test system: mouse immobilization model; test: Skeletal muscle mass (muscle weight divided by body weight) in mouse immobilization model; assay type: in vivo; conditions: oral, concentration-dependent, 7 days after inducing regeneration; FIG. 11
Excerpt: Afterwards, an increase in the skeletal muscle mass due to the drug was confirmed by dividing the weight of the separated muscle by the body weight of the mouse (FIG. 11).

[8] = test system: mouse immobilization model; test: Motor ability by rota-rod and treadmill tests after concentration-dependent oral administration; conditions: FIG. 10
Experimental: The exercise was applied using a rota-rod device consisting of 6 partitions (with a diameter of 7 cm, at an interval of 15 cm) and a rotatable cylindrical bar (with a height of 60 cm).
For the treadmill used in this test, a self-manufactured device was used. After each mouse was placed in an isolated lane and made to run, the time from the starting point to a point when the mouse was exhausted (i.e., judged to have no will to run) was recorded. […] In this experiment, repeated experiments on the same mouse could not be performed. The mouse was placed on the device and was made to run at a speed of 8 rpm, the speed was accelerated by 2 rpm every 10 minutes up to a speed of 18 rpm, and starting with no inclination, the inclination was increased by 5 degrees every 30 minutes.

[9] = test system: mouse immobilization model; test: Muscle fiber cross-sectional area (Laminin staining of TA muscle) in mouse immobilization model; conditions: 1.7 mg/kg (mouse) oral, compared to control group; FIG. 12
Experimental: The separated muscle was cut to a thickness of 5 μM and stained by immunofluorescence using a Laminin antibody. […] By using the Laminin antibody, sections of the skeletal muscle fibers formed in the basement membrane were stained, and the cross-sectional area of the muscle fibers was measured (FIG. 12).

SMILES	formation of myotubes (differentiation promoting effect) [1]	expression of MYH3 (immunocytochemistry) [2]	amount of MYH3 protein (Western blot) [3]	other results
CCCC[n+]1ccccc1 [butylpyridinium chloride]	more myotubes were formed	very high	significantly increased	range of decrease in grip strength after muscle immobilization ([4]; 15 mg/kg oral, 3 days immobilization, tested 7 days after release, FIG. 4): reduced; motor ability to maintain the sense of balance (rota-rod) ([5]; 15 mg/kg oral, after muscle immobilization, FIG. 5): improved; endurance (treadmill) ([6]; 15 mg/kg oral, after muscle immobilization, FIG. 6): improved
CCCCCCCCCCCCCCCC[n+]1ccccc1 [cetylpyridinium bromide]	–	–	increased	–
CC[n+]1ccccc1.[Cl-] [ethylpyridinium chloride]	–	–	did not increase	–
CCCCCCCCCCCC[n+]1ccccc1 [dodecylpyridinium chloride]	more myotubes were formed	very high	significantly increased	–
CCCCCCCCCCCCCCCC[n+]1ccccc1 [cetylpyridinium chloride]	more myotubes were formed	very high	significantly increased	range of decrease in grip strength after muscle immobilization ([4]; 50 mg/kg oral for 2 weeks, FIG. 7): reduced; motor ability to maintain the sense of balance (rota-rod) ([5]; 50 mg/kg oral for 2 weeks, FIG. 8): improved; endurance (treadmill) ([6]; 50 mg/kg oral for 2 weeks, FIG. 9): improved; skeletal muscle mass of the EDL muscle [7]: increased; skeletal muscle mass of the gastrocnemius muscle [7]: increased; motor ability (rota-rod and treadmill tests) [8]: improved; cross-sectional area of the muscle (TA) [9]: increased

Reference: US9949960B2, “Pharmaceutical composition for preventing or treating muscle weakness-related diseases, containing butylpyridinium or derivative thereof” (KOREA RESEARCH INSTITUTE OF BIOSCIENCE AND BIOTECHNOLOGY, priority 2014, dated 2018)
